Usually EC50 stands for the concentration needed to bring the measured effect to its halfway point.

One experiment has as its system RSV A2 strain. As to the kind of experiment: In vitro CPE (CytoPathic Effect) inhibition effect evaluation test, RSV type A. Conditions: human respiratory syncytial virus, HEp-2. Type of experiment: cell-based. The essentials: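 EC50 is the concentration giving 50% inhibition of virus-induced cytopathic effect, fitted by nonlinear regression from CellTiter-Glo 2.0 viability. Compounds in 3-fold series were co-incubated at 37 °C with HEp-2 cells and RSV: A2 strain for 4 days, B (Wash/18537) for 5 days; uninfected wells served as control.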
Background: Cytopathic effects are the visible damage that an infection or toxin causes in cultured cells.
`NC(=O)C1(NC(=O)c2cnc(N3CC4(CCNCC4)c4cc(OCCC5CCOCC5)ccc43)nc2C(F)(F)F)C2CC3CC(C2)CC1C3` (stereo not shown) [Compound I-171] returned an EC50 of 10 to 100 nM.
`Cc1ccc2c(c1)C1(CCN(C3COC3)CC1)CN2c1ncc(C(=O)NC2(C(N)=O)C3CC4CC(C3)CC2C4)c(C(F)(F)F)n1` (stereo not shown) [Compound I-181] yielded an EC50 of 10 to 100 nM.
As to `O=C(NC1(C(=O)O)C2CC3CC(C2)CC1C3)c1cnc(N2CC3(CCOCC3)c3cc(O[C@@H]4C[C@H]5CC[C@@H](C4)N5)ccc32)nc1C(F)(F)F` (stereo partly shown) [Compound I-212], the EC50 was 100 to 5000 nM.

Still in this experiment, the particulars now being: human respiratory syncytial virus; inhibitory effect against RSV type A (RSV A2 strain), HEp-2 cells, CPE inhibition; read-out: EC50.
For the molecule `CCNC(=O)N1CCC2(CC1)CN(c1ncc(C(=O)NC3(C(=O)O)C4CC5CC(C4)CC3C5)c(C(F)(F)F)n1)c1ccc(C)cc12` (stereo not shown) [Compound I-138], the EC50 is under 10 nM.
Take `Cc1ccc2c(c1)C1(CCN(c3ncccn3)CC1)CN2c1ncc(C(=O)NC2(C(=O)O)C3CC4CC(C3)CC2C4)c(C(F)(F)F)n1` (stereo not shown) [Compound I-139]: the EC50 is under 10 nM.
As for `CC(C)(C)OC(=O)N1CCC(NC(=O)c2cnc(N3CC4(CCOCC4)c4cc(OC5CCN(c6ncccn6)CC5)ccc43)nc2C(F)(F)F)(C(=O)O)CC1` [Compound I-140], the EC50 was in the range of 10 to 100 nM.
Take `O=C(NC1(C(=O)O)C2CC3CC(C2)CC1C3)c1cnc(-n2c3ccccc3c3cc(OCCC4CCOCC4)ccc32)nc1C(F)(F)F` (stereo not shown) [Compound I-141]: the EC50 is under 10 nM.
As to `O=C(NC1(C(=O)O)C2CC3CC(C2)CC1C3)c1cnc(N2CC3(CCOCC3)c3cc(OC4CCC(n5cccn5)CC4)ccc32)nc1C(F)(F)F` (stereo not shown) [Compound I-143], the half-maximal effective concentration (EC50) was under 10 nM.
As to `O=C(NC1(C(=O)O)CCNCC1)c1cnc(N2CC3(CCOCC3)c3cc(OC4CCN(c5ncccn5)CC4)ccc32)nc1C(F)(F)F` [Compound I-144], the EC50 is 100 to 5000 nM.
Regarding `COC(=O)N1CCC(NC(=O)c2cnc(N3CC4(CCOCC4)c4cc(OC5CCN(c6ncccn6)CC5)ccc43)nc2C(F)(F)F)(C(=O)O)CC1` [Compound I-145], the EC50 is 10 to 100 nM.
Regarding `O=C(NC1(C(=O)O)C2CC3CC(C2)CC1C3)c1ccc(-c2cn(CC(=O)N3CCOCC3)c3cc(OC4CCN(c5ncccn5)CC4)ccc23)nc1C(F)(F)F` (stereo not shown) [Compound I-149], the EC50 is under 10 nM.
With `O=C(NC1(C(=O)O)C2CC3CC(C2)CC1C3)c1ccc(-c2cn(C(=O)OC3CCCCC3)c3cc(OC4CCN(c5ncccn5)CC4)ccc23)nc1C(F)(F)F` (stereo not shown) [Compound I-150], the concentration for a half-maximal effect (EC50) was under 10 nM.
With `O=C(NC1(C(=O)O)C2CC3CC(C2)CC1C3)c1ccc(-c2cn(CC3CC3)c3cc(OC4CCN(c5ncccn5)CC4)ccc23)nc1C(F)(F)F` (stereo not shown) [Compound I-153], the EC50 was under 10 nM.
Regarding `O=C(NC1(C(=O)O)C2CC3CC(C2)CC1C3)c1ccc(-c2cn(C3CCC3)c3cc(OC4CCN(c5ncccn5)CC4)ccc23)nc1C(F)(F)F` (stereo not shown) [Compound I-154], the EC50 is under 10 nM.
Turning to `NC(=O)c1cc(C(=O)NC2(C(=O)O)C3CC4CC(C3)CC2C4)c(C(F)(F)F)nc1N1CCc2cc(OCCC3CCOCC3)ccc21` (stereo not shown) [Compound I-156], the EC50 lay within 100 to 5000 nM.
In the case of `O=C(NC1(C(=O)O)C2CC3CC(C2)CC1C3)c1cnc(N2CCc3cc(OCCC4CCOCC4)ccc32)nc1C(F)F` (stereo not shown) [Compound I-157], the EC50 was under 10 nM.
For `CC(F)(F)c1nc(N2CCc3cc(OCCC4CCOCC4)ccc32)ncc1C(=O)NC1(C(=O)O)C2CC3CC(C2)CC1C3` (stereo not shown) [Compound I-161], the EC50 was under 10 nM.
As to `O=C(N[C@@]1(C(=O)O)[C@@H]2C[C@@H]3C[C@H]1C[C@@](F)(C3)C2)c1cnc(N2CCc3cc(OCCC4CCOCC4)ccc32)nc1C(F)(F)F` [Compound I-163], the EC50 is under 10 nM.
For `O=C(N[C@@]1(C(=O)O)[C@@H]2C[C@@H]3C[C@H]1C[C@@](F)(C3)C2)c1cnc(N2CC3(CCOCC3)c3cc(OC4CCN(c5ncccn5)CC4)ccc32)nc1C(F)(F)F` [Compound I-164], the EC50 was under 10 nM.
For the molecule `NC(=O)[C@@]1(NC(=O)c2cnc(N3CC4(CCOCC4)c4cc(OC5CCN(c6ncccn6)CC5)ccc43)nc2C(F)(F)F)[C@@H]2CC3C[C@H]1C[C@@](F)(C3)C2` [Compound I-166], the EC50 was under 10 nM.
Turning to `NCCc1nc(N2CCc3cc(OCCC4CCOCC4)ccc32)nc(C(F)(F)F)c1C(=O)NC1(C(=O)O)C2CC3CC(C2)CC1C3` (stereo not shown) [Compound I-167], the EC50 fell in the range of 100 to 5000 nM.
Same read-out and setting: the same measure for `CN(C)CCc1nc(N2CC3(CCOCC3)c3cc(OC4CCN(c5ncccn5)CC4)ccc32)nc(C(F)(F)F)c1C(=O)NC1(C(=O)O)C2CC3CC(C2)CC1C3` (stereo not shown) [Compound I-168]: under 10 nM; for `NC(=O)C1(NC(=O)c2ccc(N3CC4(CCOCC4)c4cc(OC5CCN(c6ncccn6)CC5)ccc43)nc2C(F)(F)F)C2CC3CC(C2)CC1C3` (stereo not shown) [Compound I-169]: under 10 nM; for `NC(=O)C1(NC(=O)c2cnc(N3CC4(CCOCC4)c4cc(OCCN5CCOCC5)ccc43)nc2C(F)(F)F)C2CC3CC(C2)CC1C3` (stereo not shown) [Compound I-170]: under 10 nM.
Consider `Cc1ccc2c(c1)C1(CCNCC1)CN2c1ncc(C(=O)NC2(C(N)=O)C3CC4CC(C3)CC2C4)c(C(F)(F)F)n1` (stereo not shown) [Compound I-172], for which the EC50 lay in the range of 100 to 5000 nM.
Turning to `CNC(=O)C1(NC(=O)c2cnc(N3CC4(CCOCC4)c4cc(OC5CCN(c6ncccn6)CC5)ccc43)nc2C(F)(F)F)C2CC3CC(C2)CC1C3` (stereo not shown) [Compound I-173], the EC50 lay within 10 to 100 nM.
Consider `CN(C)C(=O)C1(NC(=O)c2cnc(N3CC4(CCOCC4)c4cc(OC5CCN(c6ncccn6)CC5)ccc43)nc2C(F)(F)F)C2CC3CC(C2)CC1C3` (stereo not shown) [Compound I-174], for which the EC50 was under 10 nM.
Regarding `CCC(F)(F)c1nc(N2CCc3cc(OCCC4CCOCC4)ccc32)ncc1C(=O)NC1(C(=O)O)C2CC3CC(C2)CC1C3` (stereo not shown) [Compound I-178], the EC50 fell in the range of 10 to 100 nM.
Regarding `CC(C)(F)c1nc(N2CCc3cc(OCCC4CCOCC4)ccc32)ncc1C(=O)NC1(C(=O)O)C2CC3CC(C2)CC1C3` (stereo not shown) [Compound I-179], the EC50 was under 10 nM.
The same measure, in the same setting: the same measure for `O=C(NC1(C(=O)O)C2CC3CC(C2)CC1C3)c1cnc(N2CCc3cc(OCCC4CCOCC4)ccc32)nc1C(F)(F)C(F)(F)F` (stereo not shown) [Compound I-180]: under 10 nM; for `N#C[C@H]1CC[C@H](n2cc(-c3ccc(C(=O)NC4(C(=O)O)C5CC6CC(C5)CC4C6)c(C(F)(F)F)n3)c3ccc(OC4CCN(c5ncccn5)CC4)cc32)CC1` (stereo partly shown) [Compound I-185]: under 10 nM.
On to `N#C[C@H]1CC[C@@H](n2cc(-c3ccc(C(=O)NC4(C(=O)O)C5CC6CC(C5)CC4C6)c(C(F)(F)F)n3)c3ccc(OC4CCN(c5ncccn5)CC4)cc32)CC1` (stereo partly shown) [Compound I-186], for which the EC50 was under 10 nM.
As to `COc1ccc2c(c1)C1(CCOCC1)CN2c1nc(CCCO)c(C(=O)NC2(C(=O)O)C3CC4CC(C3)CC2C4)c(C(F)(F)F)n1` (stereo not shown) [Compound I-187], the EC50 was in the range of 10 to 100 nM.
For the molecule `O=C(NC1(C(=O)O)C2CC3CC(C2)CC1C3)c1ccc(-c2cn([C@H]3CC[C@@H](OCc4ccccc4)CC3)c3cc(OC4CCN(c5ncccn5)CC4)ccc23)nc1C(F)(F)F` (stereo partly shown) [Compound I-188], the EC50 is under 10 nM.
`O=C(NC1(C(=O)O)C2CC3CC(C2)CC1C3)c1cnc(N2CC3(CCOCC3)c3cc(O[C@H]4CC[C@@H](n5cccn5)CC4)ccc32)nc1C(F)(F)F` (stereo partly shown) [Compound I-192]: the EC50 is under 10 nM.
As for `O=C(NC1(C(=O)O)C2CC3CC(C2)CC1C3)c1ccc(-c2cn([C@H]3CC[C@@H](O)CC3)c3cc(OC4CCN(c5ncccn5)CC4)ccc23)nc1C(F)(F)F` (stereo partly shown) [Compound I-194], the EC50 is under 10 nM.
For the molecule `O=C(NC1(C(=O)O)C2CC3CC(C2)CC1C3)c1ccc(-c2cn([C@H]3CC[C@H](O)CC3)c3cc(OC4CCN(c5ncccn5)CC4)ccc23)nc1C(F)(F)F` (stereo partly shown) [Compound I-195], the EC50 was under 10 nM.
Take `O=C(NC1(C(=O)O)C2CC3CC(C2)CC1C3)c1ccc(-c2cn(-c3cncnc3)c3cc(OC4CCN(c5ncccn5)CC4)ccc23)nc1C(F)(F)F` (stereo not shown) [Compound I-196]: the EC50 is under 10 nM.
Consider `O=C(NC1(C(=O)O)C2CC3CC(C2)CC1C3)c1ccc(-c2cn(-c3ccncn3)c3cc(OC4CCN(c5ncccn5)CC4)ccc23)nc1C(F)(F)F` (stereo not shown) [Compound I-197], for which the EC50 was under 10 nM.
In the case of `O=C(NC1(C(=O)O)C2CC3CC(C2)CC1C3)c1ccc(-c2cn(-c3cnccn3)c3cc(OC4CCN(c5ncccn5)CC4)ccc23)nc1C(F)(F)F` (stereo not shown) [Compound I-198], the EC50 is under 10 nM.
Take `O=C(NC1(C(=O)O)C2CC3CC(C2)CC1C3)c1ccc(-c2cn(CCO)c3cc(OC4CCN(c5ncccn5)CC4)ccc23)nc1C(F)(F)F` (stereo not shown) [Compound I-200]: the EC50 is under 10 nM.
`O=C(NC1(C(=O)O)C2CC3CC(C2)CC1C3)c1cnc(N2CC3(CCOCC3)c3cc(O)ccc32)nc1C(F)(F)F` (stereo not shown) [Compound I-201]: the EC50 was 10 to 100 nM.
Consider `O=C(NC1(C(=O)O)C2CC3CC(C2)CC1C3)c1cnc(N2CC3(CCOCC3)c3cc(OC4CCN(c5ncccn5)CC4)ccc32)nc1C(F)(F)CO` (stereo not shown) [Compound I-205], for which the EC50 was under 10 nM.
The same measure, in the same setting: as for `Cn1ccnc1N1CCC(Oc2ccc3c(c2)CCN3c2ncc(C(=O)NC3(C(=O)O)CCCCC3)c(C(F)(F)F)n2)CC1` [Compound I-207], the figure is 10 to 100 nM; as for `O=C(O)/C=C/C1(NC(=O)c2cnc(N3CC4(CCOCC4)c4cc(OC5CCN(c6ncccn6)CC5)ccc43)nc2C(F)(F)F)C2CC3CC(C2)CC1C3` (stereo not shown) [Compound I-208], under 10 nM.
Consider `CC(C)N1CCC(Oc2ccc3c(c2)C2(CCOCC2)CN3c2ncc(C(=O)NC3(C(=O)O)C4CC5CC(C4)CC3C5)c(C(F)(F)F)n2)CC1` (stereo not shown) [Compound I-209], for which the EC50 is under 10 nM.
Turning to `O=C(NC1(C(=O)O)C2CC3CC(C2)CC1C3)c1cnc(N2CCc3cc(CN4CCN(c5ncccn5)CC4)ccc32)nc1C(F)(F)F` (stereo not shown) [Compound I-213], the EC50 is under 10 nM.
As for `N#C[C@]12C[C@@H]3C[C@H](C1)[C@@](NC(=O)c1cnc(N4CC5(CCOCC5)c5cc(OC6CCN(c7ncccn7)CC6)ccc54)nc1C(F)(F)F)(C(=O)O)[C@@H](C3)C2` [Compound I-219], the EC50 was under 10 nM.
Consider `O=C(NC1(C(=O)O)C2CC3CC(C2)CC1C3)c1cnc(N2CCc3cc(OC4CCN(C5COC5)CC4)ccc32)nc1C(F)(F)F` (stereo not shown) [Compound I-220], for which the concentration for a half-maximal effect (EC50) is under 10 nM.
